Data reported in paper PMC2568956, “The Antimicrobial Peptide Histatin-5 Causes a Spatially Restricted Disruption on the Candida albicans Surface, Allowing Rapid Entry of the Peptide into the Cytoplasm” (PLoS Pathogens, 2008).

Key:
[1] = system: C. albicans cells; assay: Concentration-dependent localization of FITC-Hst-5 by flow cytometry (FACS analysis); type: cell-based, Candida albicans; settings: 30°C, ~10^6 cells/ml; for Percent of population: M2 (Hst-5 localized to the cytoplasm): high intensity peak; for Percent of population: M1 (Hst-5 localized to the vacuole): low intensity peak
Experimental: (§1) The intracellular localization of FITC-Hst-5 (5, 10, 20, and 50 µM) and FITC-m68 (5, 10, 20, 50, and 200 µM) was investigated either alone or in a double-labeling experiment using FM4-64 (Molecular Probes, Inc. Eugene, OR). Yeast cells in 50 µl (∼10^6 cells/ml) were incubated for 30 minutes at 30°C with 10 µM FITC-Hst-5 and 10 µM FM4-64; the cells were then washed twice with 10 mM NaN3 and 10 mM NaF in 20 mM PBS buffer, and analyzed immediately by wide-field fluorescence microscopy.
(§2) The distribution of FITC-labeled Hst-5 over the cell population was investigated by using a dual laser fluorescence-activated cell sorter (BD FACSCalibur System, Becton Dickinson, San Jose, CA). The results were analyzed with the software package CellQuest Pro (version 5.1.1) provided by Beckton Dickinson.

[2] = system: C. albicans myo5 cells; assay: FITC-Hst-5 localization in myo5 mutant cells by flow cytometry; type: cell-based, Candida albicans; settings: 10 µM FITC-Hst-5 and 10 µM FM4-64, 10 minutes, 30°C
Experimental: The intracellular localization of FITC-Hst-5 (5, 10, 20, and 50 µM) and FITC-m68 (5, 10, 20, 50, and 200 µM) was investigated either alone or in a double-labeling experiment using FM4-64 (Molecular Probes, Inc. Eugene, OR). […]
(§3) To depolarize F-actin, cells were treated with either 5 µM cytochalasin A or 50 µM latrunculin A (Sigma, St. Louis, MO) for 1 hour at room temperature. The control cells (wild-type and myo5) were treated with the equivalent volume of the DMSO solvent (0.5%). The cells were then exposed to 5 µM of FITC-Hst-5 for 30 minutes at 30°C. The cells were then washed twice with buffer containing NaN3 and NaF and analyzed by wide-field fluorescence microscopy and flow cytometry.
as §2

[3] = system: C. albicans cells; assay: Hst-5 localization studies by fluorescence microscopy; type: cell-based, Candida albicans
Experimental: as §1
(§4) Wide-field fluorescence images were obtained on either Zeiss Axioplan 2 or the inverted Zeiss Axio Observer.Z1 Microscope (Carl Zeiss MicroImaging, Inc. Thornwood, NY) fluorescent system, equipped with the AttoArc HBO 100 and the X-Cite series 120 mercury lamps, respectively. Images were taken using a 100× NA 1.4 objective. Both fluorescence microscopes were equipped with GFP, RFP, and DAPI filter sets.

[4] = system: C. albicans; parameters: method as in 4 sources, one per row (each row's own in cited_ref): ref 3, 4 = [3]; PMID 2406266; 3 Raj PA Edgerton M Levine MJ 1990 Salivary histatin 5: dependence of sequence, chain length, and helical conformation for candidacidal activity. J Biol Chem 265 3898 3905 2406266 || [4]; PMID 1855975; doi:10.1128/iai.59.8.2549-2554.1991; 4 Xu T Levitz SM Diamond RD Oppenheim FG 1991 Anticandidal activity of major human salivary histatins. Infect Immun 59 2549 2554 1855975 10.1128/iai.59.8.2549-2554.1991 PMC258054 ||| ref 37 = [37]; PMID 8945538; doi:10.1128/iai.64.12.5000-5007.1996; 37 Tsai H Raj PA Bobek LA 1996 Candidacidal activity of recombinant human salivary histatin-5 and variants. Infect Immun 64 5000 5007 8945538 10.1128/iai.64.12.5000-5007.1996 PMC174480 ||| ref 10, 13, 49 = [10]; PMID 10066791; doi:10.1074/jbc.274.11.7286; 10 Helmerhorst EJ Breeuwer P van't Hoff W Walgreen-Weterings E Oomen LC 1999 The cellular target of histatin 5 on Candida albicans is the energized mitochondrion. J Biol Chem 274 7286 7291 10066791 10 || [13]; PMID 10471575; doi:10.1128/aac.43.9.2256; 13 Xu Y Ambudkar I Yamagishi H Swaim W Walsh TJ 1999 Histatin 3-mediated killing of Candida albicans : effect of extracellular salt concentration on binding and internalization. Antimicrob Agents Chem || [49]; PMID 11083804; doi:10.1128/iai.68.12.6848-6856.2000; 49 Koshlukova SE Araujo MW Baev D Edgerton M 2000 Released ATP is an extracellular cytotoxic mediator in salivary histatin 5-induced killing of Candida albicans . Infect Immun 68 6848 6856 11083804 10 ||| ref 65, 66 = [65]; PMID 11204768; doi:10.1023/a:1026572128004; 65 van't Hoff W Reijnders I Helmerhorst E Walgreen-Weterings E Simoons-Smit I 2000 Synergistic effects of low doses of histatin 5 and its analogues on amphotericin B anti-mycotic activity. Antonie Van || [66]; PMID 16291868; doi:10.1093/jac/dki402; 66 Tanida T Okamoto T Ueta E Yamamoto T Osaki T 2006 Antimicrobial peptides enhance the candidacidal activity of antifungal drugs by promoting the efflux of ATP from Candida cells. J Antimicrob Chemot; settings: cited from earlier work
[5] = liposome model system; cited from earlier work
Experimental: Histatins are a family of low-molecular weight histidine-rich cationic peptides that are found specifically in human salivary secretions. […] It kills C. albicans in vitro at physiological concentrations (15–30 µM),[4]. Structural studies of Hst-5 have shown that it takes on a random coil structure in aqueous solvents and adopts a largely α-helical conformation in non-aqueous solutions [5],[6]. Many antimicrobial cationic peptides form either α ...

[6] = system: S. cerevisiae; assay: FITC-Hst-5 localization in S. cerevisiae by fluorescence microscopy; type: cell-based, Saccharomyces cerevisiae; settings: 50 µM FITC-Hst-5, 30 minutes, 30°C, fixed exposure time 9 ms
Experimental: as §1, §4

[7] = system: C. glabrata; assay: FITC-Hst-5 localization in C. glabrata by fluorescence microscopy; type: cell-based, Candida glabrata; settings: 50 µM FITC-Hst-5, 30 minutes, 30°C, fixed exposure time 9 ms
Experimental: as §1, §4

[8] = system: C. glabrata; settings: cited from earlier work
[9] = system: C. albicans vps36 and snf7 mutant cells; assay: Hst-5 localization in vps36 and snf7 mutant cells by fluorescence microscopy; type: cell-based, Candida albicans; settings: 10 µM FITC-Hst-5 and 10 µM FM4-64, 30 minutes, 30°C
Experimental: as §1, §4

[10] = system: S. cerevisiae; settings: cited from earlier work
[11] = system: C. albicans cells; type: cell-based, Candida albicans; settings: 10 µM FITC-Hst-5, 30 minutes, 30°C, cell sorting, ~200 cells plated on YPD, overnight 30°C, triplicate cultures
Experimental: C. albicans cells were incubated for 30 minutes with 10 µM of FITC-Hst-5 at 30°C. The cells were then washed twice with 20 mM PBS buffer and under went flow cytometric cell sorting using the DAKO Cytomation MoFlo Flow Cytometer (DAKO, Glostrup, Denmark). The results were analyzed on a PC using the software package Summit (version 4.0) provided by DAKO. The cells were sorted by gating the two peaks of the histogram representing vacuolar and cytoplasmic localization of Hst-5. Cellular localization of Hst-5 was confirmed with fluorescence microscopy. The sorted cells were then plated onto YPD plates and incubated overnight at 30°C (data as a mean±1SD of triplicate cultures).

[12] = system: C. albicans wild-type cells; assay: Hst-5 localization in cells treated with latrunculin A or cytochalasin A; type: cell-based, Candida albicans; settings: cells pre-treated with 50 µM latrunculin A or 5 µM cytochalasin A for 60 minutes at room temperature, then 5 µM FITC-Hst-5, 30 minutes, 30°C
Experimental: as §3

[13] = 50 and 200 µM FITC-m68, 30°C, 30 minutes

**Q.** For “DSHAKRHHGYKRKFHEKHHSHRGY [FITC-Hst-5, FITC-labeled Hst-5]”, which “Percent of population: M2 (Hst-5 localized to the cytoplasm)” value (“Percent of population: M2” below) ([1]; 5 µM FITC-Hst-5, 30 minutes) is on record?
**A.** The value was 1.94%.

**Q.** What about the “Percent of population: M1 (Hst-5 localized to the vacuole)” value (shortened to “Percent of population: M1”) ([1]; 5 µM FITC-Hst-5, 30 minutes) of the same compound?
**A.** The value was 96.02%.

**Q.** And the “Percent of population: M2” value ([1]; 10 µM FITC-Hst-5, 30 minutes)?
**A.** Its value is 34.63%.

**Q.** What about the “Percent of population: M1” value ([1]; 10 µM FITC-Hst-5, 30 minutes) of the same compound?
**A.** Its value is 64.02%.

**Q.** What about the “Percent of population: M2” value ([1]; 20 µM FITC-Hst-5, 30 minutes) of the same compound?
**A.** The value was 70.43%.

**Q.** What about the “Percent of population: M1” value ([1]; 20 µM FITC-Hst-5, 30 minutes) of the same compound?
**A.** The value was 29.69%.

**Q.** What about the “Percent of population: M2” value ([1]; 50 µM FITC-Hst-5, 30 minutes) of the same compound?
**A.** The value was 93.44%.

**Q.** And the “Percent of population: M1” value ([1]; 50 µM FITC-Hst-5, 30 minutes)?
**A.** Its value is 6.50%.

**Q.** What about the “population with cytoplasmic localization” value [2] of the same compound?
**A.** The value was 19.01%.

**Q.** What about the “population with plasma membrane localization” value [2] of the same compound?
**A.** Its value is 80.99%.

**Q.** For “DSHAKRHHGYKREFHEKHHSHGGY [FITC-m68, FITC-labeled Hst-5 m68]”, which cytoplasmic localization ([3]; 5, 10 and 20 µM FITC-m68, 30°C, 30 minutes (data not shown)) is on record?
**A.** Its cytoplasmic localization is “not observed”.

**Q.** And the cellular localization [3, 13]?
**A.** The cellular localization was “localized to the vacuole in the majority of cells”.

**Q.** And the cytoplasmic localization [3, 13]?
**A.** Its cytoplasmic localization is “only seen in a small portion of the cell population”.

**Q.** Which “killing ability relative to Hst-5” value [4] does the source give for “DSHAKRHHGYKREFHEKHHSHGGY [m68, variant of Hst-5 reported by Tsai et al.: lysine-13 replaced with glutamic acid and arginine 22 with glycine, reference compound]” here?
**A.** Its value is “significant reduction”.

**Q.** Which lytic effect [5] does the source give for `C[C@H](NC(=O)[C@H](Cc1cnc[nH]1)NC(=O)[C@H](CO)NC(=O)[C@@H](N)CC(=O)O)C(=O)N[C@@H](CCCCN)C(=O)N[C@@H](CCCNC(=N)N)C(=O)N[C@@H](Cc1cnc[nH]1)C(=O)N[C@@H](Cc1cnc[nH]1)C(=O)NCC(=O)N[C@@H](Cc1ccc(O)cc1)C(=O)N[C@@H](CCCCN)C(=O)N[C@@H](CCCNC(=N)N)C(=O)N[C@@H](CCCCN)C(=O)N[C@@H](Cc1ccccc1)C(=O)N[C@@H](Cc1cnc[nH]1)C(=O)N[C@@H](CCC(=O)O)C(=O)N[C@@H](CCCCN)C(=O)N[C@@H](Cc1cnc[nH]1)C(=O)N[C@@H](Cc1cnc[nH]1)C(=O)N[C@@H](CO)C(=O)N[C@@H](Cc1cnc[nH]1)C(=O)N[C@@H](CCCNC(=N)N)C(=O)NCC(=O)N[C@@H](Cc1ccc(O)cc1)C(=O)O` [Hst-5, histatin-5] here?
**A.** The lytic effect was “little lytic effect”.

**Q.** And the cellular localization [6]?
**A.** The cellular localization was “found bound to the cell surface”.

**Q.** What about the cellular localization [7] of the same compound?
**A.** Its cellular localization is “predominantly localized to the vacuole”.

**Q.** And the cellular localization ([3]; 5 µM FITC-Hst-5, 30 minutes, fluorescence microscopy)?
**A.** The cellular localization was “mostly vacuolar localization”.

**Q.** What about the cellular localization ([3]; 20 µM FITC-Hst-5, pH 4.5, 30 minutes, 30°C) of the same compound?
**A.** The cellular localization was “a preponderance of cells had Hst-5 localized within the cytoplasm”.

**Q.** And the cellular localization ([3]; 20 µM FITC-Hst-5, pH 9.0, 30 minutes, 30°C)?
**A.** Its cellular localization is “no cytoplasmic localization was observed”.

**Q.** What about the cellular localization ([3]; 50 µM FITC-Hst-5, 30 minutes, fluorescence microscopy) of the same compound?
**A.** Its cellular localization is “largely cytoplasmic localization with little vacuolar fluorescence”.

**Q.** What about the “killing of C. albicans in combination” value ([4]; combined with amphotericin B) of the same compound?
**A.** The value was “strong synergistic killing”.

**Q.** And the “concentration that kills C. albicans in vitro (physiological concentrations)” value ([4]; in vitro)?
**A.** The value was 15–30 µM.

**Q.** And the “resistance of the yeast to the peptide” value [8]?
**A.** The value was “marked resistance”.

**Q.** What about the cellular localization [9] of the same compound?
**A.** The cellular localization was “excluded from the lumen of vacuole-like membrane structures”.

**Q.** And the “resistance of the yeast to the peptide” value [10]?
**A.** The value was “marked resistance”.

**Q.** And the “colony formation of sorted cells with cytoplasmic Hst-5” value [11]?
**A.** The value was “none”.

**Q.** And the cellular localization [12]?
**A.** The cellular localization was “observed in the cytoplasm in a majority of the cells”.
